Patent publication US9359298B2, “Cajanine structure analogous compound, preparation method and use” (INSTITUTE OF MEDICINAL BIOTECHNOLOGY, CHINESE ACADEMY OF …, priority 2011, dated 2016)
≈ marks a conversion by molar mass, not a printed value. Read-outs that look alike come from different tables or passages of the source.

Columns and labels:
PC12 cells [1] = assay: Neuroprotective activity assay, rotenone injury to PC12 cells (MTT); format: cell-based; conditions: for viability at 10 µM: Rattus norvegicus, PC-12, 48 h, 10 μM test compound, 4 μM rotenone, 48 h, Control 100.0 ± 8.9, Model 73.2 ± 7.8, read-out: rotenone (surviving PC12 cells, MTT 570 nm); for protective effect on rotenone injury to PC12 cells: statement in words
Procedure, shortened: (§1)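 Survival measured as MTT absorbance at 570 nm after 4 h dye uptake. Compounds (10 μM) were co-applied for 48 h to PC12 cells deprived of serum or exposed to 4 μM rotenone, following 24 h seeding on poly-lysine.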

HIV-1 III B virus = assay: Anti-HIV activity assay (P24 antigen in MT-4 cells); format: cell-based; conditions: for IC50: Human immunodeficiency virus 1, MT4, 96 h, read-out: HIV IC50; for anti-HIV viral activity: statement in words
[2] = test system: Influenza A virus (hanfang359/95); assay: Determination of anti-influenza virus activity (CPE in MDCK cells); format: cell-based; conditions: for IC50: Influenza A virus, MDCK, 36 h; for anti-influenza virus activities compared with the lead compound cajanine: statement in words
ovariectomized rats = assay: Protective effect on bone osteoporosis in ovariectomized rats; format: in vivo; conditions: compared with raloxifene
Description: The present invention also relates to anti-osteoporotic effect of said compounds. According to literature reports, pigeonpea stilbene-type compounds belong to phytoestrogens, the anti-osteoporosis effect of natural products has to do with their estrogen-like effects.

PC12 cells [3] = assay: Neuroprotective activity assay, serum-deprived injury to PC12 cells (MTT); format: cell-based; conditions: for viability at 10 µM: Rattus norvegicus, PC-12, 48 h, 10 μM test compound, 48 h, Control 100.0 ± 9.2, Model 69.3 ± 4.1, read-out: serum-deprived (surviving PC12 cells, MTT 570 nm); for protective effect on serum-deprived injury to PC12 cells: statement in words
Procedure, shortened: as §1

HCV = assay: Anti-hepatitis C virus (HCV) activity assay (HCV RNA in Huh7.5 cells); format: cell-based; conditions: for EC50: Hepatitis C virus, Huh7.5, 72 h, read-out: HCV EC50; for anti-HCV viral activity: statement in words
Procedure: Inoculate Huh7.5 cells into 96-well plates to a density of 3×10^4 cells/cm^2, culture for 24h, infect the cells with 45 IU/cell HCV supernatant, meanwhile, add drug solutions or solvent control for treatment.

Coxsackie virus B6 = assay: Coxsackie virus activity assay (CPE in Vero cells); format: cell-based; conditions: Vero, read-out: COX-B6 IC50, Vero cells, about 100TCID50, CPE, Reed-Muench
[4] = MT-4 cells, HIV-1 III B 100TCID50, 96 h, P24 antigen
[5] = Huh7.5 cells, 72 h, HCV RNA by RT-PCR, Reed-Muench

Structure (SMILES) | viability at 10 µM (PC12 cells [1]) [%] | IC50 (HIV-1 III B virus) [µg/mL] | anti-HIV viral activity (HIV-1 III B virus) | IC50 [2] [µg/mL] | in vivo anti-osteoporotic effect (ovariectomized rats) | viability at 10 µM (PC12 cells [3]) [%] | EC50 (HCV) [µg/mL] | anti-HCV viral activity (HCV) | IC50 (Coxsackie virus B6) [µg/mL] | protective effect on rotenone injury to PC12 cells (PC12 cells [1]) | IC50 (HIV-1 III B virus; [4]) [µg/mL] | anti-influenza virus activities compared with the lead compound cajanine [2] | protective effect on serum-deprived injury to PC12 cells (PC12 cells [3]) | EC50 (HCV; [5]) [µg/mL]
COc1cc(/C=C/c2ccccc2)c(C(=O)O)c(O)c1CC=C(C)C [Compound 1, 2-hydroxy-3-isopentenyl-4-methoxy-6-[(E)-styryl]benzoic acid] | 72.3 ± 5.9 | 0.27 (≈ 0.798 µM) | stronger anti-HIV, HCV viral activities | 8.9 (≈ 26.3 µM) | stronger in vivo anti-osteoporotic effect than clinical drug raloxifene | 19.3 ± 1.6 | 1.21 (≈ 3.58 µM) | stronger anti-HIV, HCV viral activities | 0.9 (≈ 2.66 µM) | – | – | – | – | –
COc1cc(/C=C/c2cc(O)ccn2)c(C(=O)O)c(O)c1CC=C(C)C [Compound 1w, 2-hydroxy-3-isopentenyl-4-methoxy-6-[(E)-2-(4-hydroxypyrid-2-yl)ethenyl]benzoic acid] | 88.9 ± 2.5 | – | – | 0.19 (≈ 0.535 µM) | – | 89.3 ± 5.4 | – | – | 0.54 (≈ 1.52 µM) | the strongest activities | 2.87 (≈ 8.08 µM) | significantly stronger than the lead compound cajanine | the strongest activities | 2.06 (≈ 5.8 µM)
Oc1cc(O)cc(/C=C/c2cc(O)c(O)c(O)c2)c1 [Compound 21k, 1,3-dihydroxy-5-[(E)-3,4,5-trihydroxystyryl]benzene] | 71.3 ± 8 | – | – | 0.54 (≈ 2.07 µM) | – | 74.5 ± 5.8 | – | – | 0.78 (≈ 3 µM) | – | 10.3 (≈ 39.7 µM) | significantly stronger than the lead compound cajanine | – | 8.36 (≈ 32.1 µM)
COC(=O)c1c(/C=C/c2ccccc2)cc(OC)cc1OC [Compound 6, methyl 2,4-dimethoxy-6-[(E)-styryl]benzoate] | 74.4 ± 5.2 | > 2.06 | – | > 2.05 | – | 62.4 ± 7 | – | – | > 2.06 | – | – | – | – | > 12.2
COc1cc(/C=C/c2ccc(C)cc2)cc(O)c1CC=C(C)C [Compound 10g, 2-isopentenyl-3-methoxy-5-[(E)-4′-methylstyryl]phenol] | 80.3 ± 3.2 | 1.18 (≈ 3.83 µM) | – | > 6.19 | – | 81.3 ± 2.5 | – | – | 1.18 (≈ 3.83 µM) | – | – | – | – | 3.09 (≈ 10 µM)
COc1cc(/C=C/c2cccs2)cc(O)c1CC=C(C)C [Compound 10j] | 84.6 ± 5.2 | – | stronger anti-HIV, HCV viral activities | > 18.5 | – | 82.3 ± 2.5 | – | stronger anti-HIV, HCV viral activities | 1.56 (≈ 5.19 µM) | the strongest activities | 0.66 (≈ 2.2 µM) | – | the strongest activities | 0.87 (≈ 2.9 µM)
COc1cc(/C=C/c2ccccc2C)c(C(=O)O)c(O)c1CC=C(C)C [Compound 1e, 2-hydroxy-3-isopentenyl-4-methoxy-6-[(E)-2-methylstyryl]benzoic acid] | 55.6 ± 9.9 | – | stronger anti-HIV, HCV viral activities | > 2.47 | – | 30.6 ± 12 | – | stronger anti-HIV, HCV viral activities | 3.26 (≈ 9.25 µM) | – | 2.7 (≈ 7.66 µM) | – | – | 0.47 (≈ 1.33 µM)
COc1cc(/C=C/c2ccccc2)cc(O)c1CC=C(C)C [Compound 10, Cajanine A] | 69.9 ± 5.8 | – | stronger anti-HIV, HCV viral activities | 0.27 (≈ 0.917 µM) | – | 34.7 ± 9.8 | – | stronger anti-HIV, HCV viral activities | 0.69 (≈ 2.34 µM) | – | 0.21 (≈ 0.713 µM) | significantly stronger than the lead compound cajanine | – | 0.56 (≈ 1.9 µM)
COc1cc(/C=C/c2cc(O)cc(O)n2)cc(O)c1CC=C(C)C [10e′] | 88.9 ± 2.8 | – | – | 0.21 (≈ 0.641 µM) | – | 87.9 ± 4.7 | – | – | 1.21 (≈ 3.7 µM) | – | 0.71 (≈ 2.17 µM) | – | – | 1.87 (≈ 5.71 µM)
